Measurements from patent US7709498B2, “Quinoline derivatives as antibacterial agents” (Janssen Pharmaceutica N.V., priority 2005, dated 2010).
Converted amounts (≈) assume the structure as drawn.

Key:
Format in all cases: cell-based
[1] = tested on: Listeria monocytogenes (ATCC49594); assay: Microtitre plate assay, IC90 determination, LMO 49594; conditions: 90% inhibitory concentration for bacterial growth, 37° C., resazurin fluorescence; for IC90 (μg/ml) LMO 49594: 24 hours
Procedure: (§1) The bacteria used in this study were grown overnight in flasks containing 100 ml Mueller-Hinton Broth (Becton Dickinson—cat. no. 275730) in sterile de-ionized water, with shaking, at 37° C. Stocks (0.5 ml/tube) were stored at −70° C. until use. Bacteria titrations were performed in microtiter plates to detect the TCID50, in which the TCID50 represents the dilution that gives rise to bacterial growth in 50% of inoculated cultures.
(§2) In general, an inoculum level of approximately 100 TCID50 was used for susceptibility testing.
(§3) Flat-bottom, sterile 96-well plastic microtiter plates were filled with 180 μl of sterile deionized water, supplemented with 0.25% BSA. Subsequently, stock solutions (7.8× final test concentration) of compounds were added in 45 μl volumes in column 2. Serial five-fold dilutions (45 μl in 180 μl) were made directly in the microtiter plates from column 2 to reach column 11. Untreated control samples with (column 1) and without (column 12) inoculum were included in each microtiter plate. Depending on the bacteria type, approximately 10 to 60 CFU per well of bacteria inoculum (100 TCID50), in a volume of 100 μl in 2.8× Mueller-Hinton broth medium, was added to the rows A to H, except column 12. The same volume of broth medium without inoculum was added to column 12 in row A to H. The cultures were incubated at 37° C. for 24 hours under a normal atmosphere (incubator with open air valve and continuous ventilation). At the end of incubation, one day after inoculation, the bacterial growth was quantitated fluorometrically. Therefore resazurin (0.6 mg/ml) was added in a volume of 20 μl to all wells 3 hours after inoculation, and the plates were re-incubated overnight. A change in colour from blue to pink indicated the growth of bacteria. The fluorescence was read in a computer-controlled fluorometer (Cytofluor Biosearch) at an excitation wavelength of 530 nm and an emission wavelength of 590 nm. The % growth inhibition achieved by the compounds was calculated according to standard methods. The IC90 (expressed in μg/ml) was defined as the 90% inhibitory concentration for bacterial growth.
(§4) BSU 3639 means Bacillus subtilis (ATCC43639); ECO 25922 means Escherichia coli (ATCC25922); EFA 14506 means Enterococcus faecalis (ATCC14506); EFA 29212 means Enterococcus faecalis (ATCC29212); LMO 49594 means Listeria monocytogenes (ATCC49594); PAE 27853 means Pseudomonas aeruginosa (ATCC27853); SMU 33402 means Streptococcus mutans (ATCC33402); SPN 6305 means Streptococcus pneumoniae (ATCC6305); SPY 8668 means Streptococcus pyogens (ATCC8668); STA 43300 means Staphylococcus aureus (ATCC43300); STA 25923 means Staphylococcus aureus (ATCC25923); STA 29213 means Staphylococcus aureus (ATCC29213); STA RMETH means methicilline resistant Staphylococcus aureus (MRSA) (a clinical isolate from the University of Antwerp). ATCC means American type tissue culture.

[2] = tested on: Streptococcus mutans (ATCC33402); assay: Microtitre plate assay, IC90 determination, SMU 33402; conditions: 90% inhibitory concentration for bacterial growth, 37° C., 24 hours, resazurin fluorescence
Procedure: as §1, §2, §3, §4

[3] = tested on: Streptococcus pyogens (ATCC8668); assay: Microtitre plate assay, IC90 determination, SPY 8668; conditions: 90% inhibitory concentration for bacterial growth, 37° C., 24 hours, resazurin fluorescence
Procedure: as §1, §2, §3, §4

[4] = tested on: Streptococcus pneumoniae (ATCC6305); assay: Microtitre plate assay, IC90 determination, SPN 6305; conditions: 90% inhibitory concentration for bacterial growth, 37° C., resazurin fluorescence; for IC90 (μg/ml) SPN 6305: 24 hours; for IC90: Streptococcus pneumoniae, ATCC6305, 24 h, read-out: IC90 (μg/ml) SPN 6305
Procedure: as §1, §2, §3, §4

IC90 (μg/ml) SMU 33402 [2] [µg/mL] | IC90 (μg/ml) SPN 6305 [4] [µg/mL] | Compound | also measured
10.4 (≈ 19.9 µM) | – | COc1nc2ccc(Br)cc2cc1C(c1ccccc1)C(O)(CC[N+](C)(C)[O-])c1ccccc1 (racemic) [Compound 11] | IC90 (μg/ml) LMO 49594 [1]: 11.7 µg/mL (≈ 22.4 µM); IC90 (μg/ml) SPY 8668 [3]: 11.7 µg/mL (≈ 22.4 µM)
– | 5.9 (≈ 11.1 µM) | COc1nc2ccc(Br)cc2cc1C(c1ccccc1)C(O)(CCn1cncn1)c1ccccc1 (racemic) [Compound 53] | –
– | 0.6 (≈ 1.06 µM) | COc1nc2ccc(Br)cc2cc1C(c1ccccc1)C(O)(CCN1CCSCC1)c1ccccc1 (racemic) [Compound 55] | –
5.9 (≈ 11.3 µM) | – | COc1nc2ccc(Br)cc2cc1C(c1ccccc1)C(O)(CC[N+](C)(C)[O-])c1ccccc1 (racemic) [Compound 58] | IC90 (μg/ml) SPY 8668 [3]: 8.3 µg/mL (≈ 15.9 µM)
18.9 (≈ 31.6 µM) | 26.7 (≈ 44.7 µM) | COc1nc2ccc(Br)cc2cc1C(c1ccccc1)C(O)(CCN1CCOCC1)c1ccc2ccccc2c1 (racemic) [Compound 139] | –
9.5 (≈ 15.9 µM) | – | COc1nc2ccc(Br)cc2cc1C(c1ccccc1)C(O)(CCN1CCOCC1)c1ccc2ccccc2c1 (racemic) [Compound 140] | –
– | – | COc1nc2ccc(Br)cc2cc1C(c1ccccc1)C(O)(CCN1CCN(C)CC1)c1cccc2ccccc12 (racemic) [Compound 149] | IC90 (μg/ml) LMO 49594 [1]: 12.2 µg/mL (≈ 20 µM)
14.3 (≈ 25.2 µM) | 14.3 (≈ 25.2 µM) | COCCOc1nc2ccc(Br)cc2cc1C(c1ccccc1)C(O)(CCN(C)C)c1cccc(F)c1 (racemic) [Compound 165] | IC90 (μg/ml) SPY 8668 [3]: 11.3 µg/mL (≈ 19.9 µM)
– | – | COc1nc2ccc(Br)cc2cc1C(c1ccccc1)C(O)(CCN1CCCC1)c1ccc2ccccc2c1 (racemic) [Compound 171] | IC90 (μg/ml) SPY 8668 [3]: 11.6 µg/mL (≈ 19.9 µM)
– | – | COc1nc2cc(C)c(Br)cc2cc1C(c1ccccc1)C(O)(CCN(C)C)c1cccc(F)c1 (racemic) [Compound 215] | IC90 (μg/ml) LMO 49594 [1]: 10.7 µg/mL (≈ 19.9 µM)
– | 14.3 (≈ 25.1 µM) | COc1nc2cc(C)c(Br)cc2cc1C(c1ccccc1)C(O)(CCN(C)C)c1cccc2ccccc12 (racemic) [Compound 226] | –
– | 5.0 (≈ 9 µM) | COc1nc2cc(C)c(Br)cc2cc1C(c1ccccc1)C(O)(CCN(C)C)c1cc(F)cc(F)c1 (racemic) [Compound 227] | –
22.5 (≈ 44.6 µM) | 5.0 (≈ 9.91 µM) | COc1nc2cc(C)c(C)cc2cc1C(c1ccccc1)C(O)(CCN(C)C)c1cccc2ccccc12 (racemic) [Compound 229] | –
– | 15.9 (≈ 25.2 µM) | CCN(CCC(O)(c1ccc(F)cc1F)C(c1ccccc1)c1cc2cc(Br)ccc2nc1OC)Cc1ccccc1 (racemic) [Compound C] | –
22.6 (≈ 44.7 µM) | 25.3 (≈ 50.1 µM) | COc1nc2ccc(Br)cc2cc1C(c1ccccc1)C(O)(CCN(C)C)c1ccccc1 (single isomer, unassigned) [F] | IC90 (μg/ml) SPY 8668 [3]: 22.6 µg/mL (≈ 44.7 µM)
– | – | COc1nc2ccc(Br)cc2cc1C(c1ccccc1)C(O)(CCN(C)C)c1ccccc1 (stereo not drawn) [Compound 4] | IC90 [4]: 12.7 µg/mL (≈ 25.1 µM)
10.4 (≈ 20 µM) | – | CCOc1nc2ccc(Br)cc2cc1C(c1ccccc1)C(O)(CCN(C)C)c1ccccc1 (stereo not drawn) [Compound 5] | –
– | – | COc1nc2ccc(Br)cc2cc1C(c1ccccc1)C(O)(CCN(C)C)c1ccc(Cl)cc1 (stereo not drawn) [Compound 17] | IC90 ([1]; Listeria monocytogenes, ATCC49594, 24 h, read-out: IC90 (μg/ml) LMO 49594): 10.8 µg/mL (≈ 20 µM); IC90 [4]: 0.5 µg/mL (≈ 0.926 µM)
– | 13.4 (≈ 25.1 µM) | CCN(CC)CCC(O)(c1ccccc1)C(c1ccccc1)c1cc2cc(Br)ccc2nc1OC (stereo not drawn) [Compound 19] | –
– | 2.6 (≈ 5.08 µM) | COc1nc2ccc(Br)cc2cc1C(c1ccccc1)C(O)(CCN(C)C)c1cccs1 (stereo not drawn) [Compound 20] | –
– | – | COc1nc2ccc(Br)cc2cc1C(c1ccccc1)C(O)(CCN(C)C)c1ccsc1 (stereo not drawn) [Compound 24] | IC90 [4]: 10.2 µg/mL (≈ 19.9 µM)
– | 12.1 (≈ 22.4 µM) | COc1nc2ccc(Br)cc2cc1C(c1ccc(Cl)cc1)C(O)(CCN(C)C)c1ccccc1 (stereo not drawn) [Compound 37] | –
– | – | COc1nc2ccc(Br)cc2cc1C(c1ccccc1)C(O)(CCN(C)C)c1cccc(F)c1 (stereo not drawn) [Compound 38] | IC90 (μg/ml) LMO 49594 [1]: 10.4 µg/mL (≈ 19.9 µM)
